This note sets out measurements from PubChem BioAssay AID687005 (Broad Institute, 2013).

Inconclusive results are not listed. Calls of active or inactive are those of the source.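 Rule for the calls: active = Compounds that reduce signal, with fitted half-maximal dose at or under twice the top valid tested dose; inconclusive = Poor fit, or flat curve losing 30 to 70% of signal; inactive = Potency past limit, flat within 30%, or opposite direction.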

One assay is described as follows: HEK293T cell cytotoxicity, dose response, cytotoxicity control, ATP luminescence, cherry-pick samples (AID 687005). Conditions: HEK293T viability, ATP luminescence (CellTiter-Glo), 48 h; at 21 µM (top of the series).
`Cc1ccc(S(=O)(=O)N[C@@H]2CCCN(Cc3cccc(OCCO)c3)C2)cc1`: the activity change, negative = cytotoxicity is 0.167% (inactive).

The assay is the same for the next values; noted with them: HEK293T viability, ATP luminescence (CellTiter-Glo), 48 h; at 23.5 µM (top of the series).
In the case of `CN1c2ccc(-c3ccc(F)cc3)cc2[C@H]2[C@H](CCN2S(=O)(=O)c2cccc(F)c2)[C@H]1CO`, the activity change, negative = cytotoxicity was -32.1% (inactive).
On the same count and under the same terms, in the case of `CNC(=O)C[C@H]1CC[C@H]2[C@H](COc3ccc(NC(=O)c4cc(C)on4)cc3C(=O)N2C)O1` it was -23.4% (inactive); in that of `COC(=O)C1=C(C)N(Cc2ccccc2)C(=S)N[C@H]1c1ccc(Br)cc1`, 13.4% (inactive).
Still for that read-out and setting: in the case of `C[C@H](CO)N1C[C@H](C)[C@H](CN(C)C(=O)Nc2cccc3ccccc23)Oc2ccc(NC(=O)Cc3ccccc3)cc2CC1=O` it was 10.3% (inactive); in that of `CN1c2ccc(Br)cc2[C@@H]2[C@@H](CCN2C(=O)Cc2cccnc2)[C@@H]1CO`, -13.9% (inactive).
As to `C[C@H]1CN([C@@H](C)CO)C(=O)c2cc(NC(=O)Nc3ccc(F)cc3)ccc2O[C@@H]1CN(C)S(C)(=O)=O`, the activity change, negative = cytotoxicity was 2.53% (inactive).

The same assay, now with this note: HEK293T viability, ATP luminescence (CellTiter-Glo), 48 h; at 26 µM (top of the series).
As to `CCC(=O)N(C)C[C@@H]1Oc2cc(C#CC(C)(C)O)ccc2S(=O)(=O)N([C@@H](C)CO)C[C@H]1C`, the activity change, negative = cytotoxicity was -26.1% (inactive).
Same read-out and setting: in the case of `COc1cccc(S(=O)(=O)N(C)C[C@@H]2Oc3ncc(-c4cccc(F)c4)cc3C(=O)N([C@H](C)CO)C[C@@H]2C)c1` it was -18.4% (inactive); in that of `Cc1noc(C)c1NC(=O)N(C)C[C@H]1OCCCC[C@@H](C)Oc2ccc(NC(=O)NC(C)C)cc2C(=O)N([C@H](C)CO)C[C@H]1C`, -10.9% (inactive).
Same read-out and setting: in the case of `O=C([C@@H]1[C@@H](CO)[C@@H]2Cn3c(cccc3=O)[C@@H]2N1CCC(F)(F)F)N1CCCCC1` it was 1.78% (inactive); in that of `COc1ccc(-c2cnc3c(c2)C(=O)N([C@@H](C)CO)C[C@H](C)[C@@H](CN(C)S(C)(=O)=O)O3)cc1`, -11.2% (inactive); in that of `C[C@H]1CN([C@@H](C)CO)C(=O)c2cc(-c3ccc(F)cc3)cnc2O[C@@H]1CN(C)CC1CCCCC1`, -16.9% (inactive).
Consider `CC(C)NC(=O)Nc1ccc2c(c1)C(=O)N([C@@H](C)CO)C[C@@H](C)[C@H](CN(C)C(=O)c1ccncc1)OCCCC[C@H](C)O2`, for which the activity change, negative = cytotoxicity is 23.3% (inactive).
On the same count and under the same terms, in the case of `COc1ccc(C#Cc2cnc3c(c2)C(=O)N([C@@H](C)CO)C[C@H](C)[C@@H](CN(C)C(=O)CC2CC2)O3)cc1` it was -34.7% (inactive); in that of `O=C(C[C@H]1CC[C@H]2[C@@H](COC[C@H](O)CN2Cc2cc(F)cc(F)c2)O1)Nc1nccs1`, 0.29% (inactive); in that of `COCCNC(=O)C[C@H]1C[C@@H]2c3cc(NC(=O)C4CCC4)ccc3O[C@@H]2[C@H](CO)O1`, 26.2% (inactive).
The same measure, in the same setting: the figure for `O=C(C[C@H]1CC[C@@H](NC(=O)c2ccc3c(c2)OCO3)[C@@H](CO)O1)NCc1ccc(F)cc1` is -2.35% (inactive); for `C[C@H](CO)N1C[C@H](C)[C@H](CN(C)C(=O)Nc2cccc3ccccc23)Oc2ccc(NC(=O)Nc3ccccc3)cc2C1=O` it is 2.5% (inactive).
The same measure, in the same setting: in the case of `CC(C)CC#Cc1cnc2c(c1)C(=O)N([C@H](C)CO)C[C@@H](C)[C@@H](CN(C)C(=O)c1ccc3c(c1)OCO3)O2` it was 33.9% (inactive); in that of `CC(C)C#Cc1ccc2c(c1)O[C@H](CN(C)C(=O)Cc1ccccn1)[C@H](C)CN([C@H](C)CO)S2(=O)=O`, -25.6% (inactive).
On to `CCC(=O)N[C@@H]1C=C[C@H](CC(=O)NCC2CCCCC2)O[C@H]1CO`, for which the activity change, negative = cytotoxicity is -35.2% (inactive).
Turning to `CCC(=O)N(C)C[C@H]1Oc2cc(-c3ccccc3)ccc2S(=O)(=O)N([C@H](C)CO)C[C@H]1C`, the activity change, negative = cytotoxicity is 6.53% (inactive).
As to `CC(C)NC(=O)Nc1ccc2c(c1)C(=O)N([C@@H](C)CO)C[C@@H](C)[C@@H](CN(C)C(=O)c1ccncc1)OCCCC[C@@H](C)O2`, the activity change, negative = cytotoxicity was -15.2% (inactive).
The same measure, in the same setting: the figure for `Cc1ccccc1S(=O)(=O)N[C@H]1CC[C@H](CCNS(=O)(=O)c2cccc(F)c2)O[C@H]1CO` is -6.73% (inactive); for `CN1C(=O)c2cc(NC(=O)NC3CCCC3)ccc2OC[C@H]2O[C@@H](CC(=O)NC3CCC3)CC[C@@H]21` it is 0.295% (inactive).
On the same count and under the same terms, in the case of `C[C@@H]1CN([C@@H](C)CO)C(=O)c2cc(NC(=O)Nc3cccc4ccccc34)ccc2O[C@@H]1CN(C)C(=O)Nc1ccccc1` it was 42.1% (inactive); in that of `O=C(C[C@H]1CC[C@H]2[C@@H](COC[C@@H](O)CN2C(=O)c2ccc(F)cc2)O1)N1CCOCC1`, -14.1% (inactive).
The same measure, in the same setting: in the case of `O=C(C[C@@H]1CC[C@H](NC(=O)Cc2ccccn2)[C@H](CO)O1)NCCc1ccccc1` it was -2.62% (inactive); in that of `Cc1noc(C)c1NC(=O)Nc1ccc2c(c1)C(=O)N([C@@H](C)CO)C[C@H](C)[C@H](CN(C)CC1CCCCC1)O2`, -11.6% (inactive); in that of `CC(C)CC#Cc1ccc2c(c1)O[C@@H](CN(C)C(=O)C1CCC1)[C@@H](C)CN([C@H](C)CO)S2(=O)=O`, 1.96% (inactive).
`COCC(=O)N1[C@H](C#N)[C@H](c2ccc(C#Cc3ccccc3F)cc2)[C@H]1CO`: the activity change, negative = cytotoxicity is 8.29% (inactive).
Turning to `COCC(=O)Nc1ccc2c(c1)C(=O)N(C)C[C@@H](OC)[C@H](C)CN(Cc1ccccc1)[C@@H](C)CO2`, the activity change, negative = cytotoxicity was 7.91% (inactive).
Same read-out and setting: the figure for `O=C(NC(=S)Nc1ccccc1N1CCOCC1)c1cccc([N+](=O)[O-])c1` is -5.81% (inactive); for `COc1cccc(S(=O)(=O)Nc2ccc3c(c2)[C@@H]2C[C@H](CC(=O)NC4CCCCC4)O[C@H](CO)[C@@H]2O3)c1` it is -27.9% (inactive).
Same read-out and setting: in the case of `C[C@H]1CN([C@@H](C)CO)C(=O)CCCn2cc(nn2)CO[C@@H]1CN(C)Cc1ccc(C(F)(F)F)cc1` it was -2.59% (inactive).
As for `COc1cccc(S(=O)(=O)N(C)C[C@H]2OCc3cnnn3CCCC(=O)N([C@H](C)CO)C[C@H]2C)c1`, the activity change, negative = cytotoxicity was 38.2% (inactive).
Turning to `C[C@@H]1CCCCO[C@H](CN(C)Cc2ccncc2)[C@@H](C)CN([C@H](C)CO)C(=O)c2cc(N(C)C)ccc2O1`, the activity change, negative = cytotoxicity was -3.32% (inactive).
On the same count and under the same terms, the figure for `COCC(=O)N(C)C[C@@H]1Oc2ncc(C#CCC3CCCC3)cc2C(=O)N([C@H](C)CO)C[C@H]1C` is 57.2% (inactive).
The same measure, in the same setting: the figure for `Cc1cc(C)c(NC(=O)C2CCCN2CCO)c(C)c1` (stereo not drawn) is -10.1% (inactive).
The same measure, in the same setting: in the case of `O=C(C[C@H]1C=C[C@H](NC(=O)C2CCC2)[C@@H](CO)O1)NC1CCC1` it was -2.82% (inactive).
In the case of `Cc1cccc(NC(=S)NN(Cc2ccccc2)c2ccccc2)c1C`, the activity change, negative = cytotoxicity was 25.3% (inactive).
The same measure, in the same setting: the figure for `Fc1ccccc1NC(=S)NCCc1cccc(Cl)c1` is 1.09% (inactive); for `C[C@@H]1CN([C@H](C)CO)C(=O)c2cc(NC(=O)Nc3cccc4ccccc34)ccc2O[C@@H]1CN(C)C(=O)Nc1ccccc1` it is -5.06% (inactive); for `CC(C)NC(=O)N(C)C[C@H]1Oc2c(NC(=O)C3CCCCC3)cccc2C(=O)N([C@H](C)CO)C[C@H]1C` it is 5.22% (inactive).
On to `COc1ccccc1NC(=O)N[C@@H]1CC[C@H](CCn2cc(-c3ccccc3OC)nn2)O[C@H]1CO`, for which the activity change, negative = cytotoxicity was -11.8% (inactive).
In the case of `O=C(C[C@H]1CC[C@H]2[C@@H](COC[C@H](O)CN2C(=O)Nc2ccc3c(c2)OCO3)O1)N1CCN(c2ccccc2)CC1`, the activity change, negative = cytotoxicity was 5.63% (inactive).
Same read-out and setting: in the case of `CCCNC(=O)[C@H]1[C@H](CO)[C@H]2Cn3c(cccc3=O)[C@@H]1N2C(=O)Nc1cc(F)ccc1F` it was 42.5% (inactive).
On the same count and under the same terms, in the case of `C[C@@H]1CN([C@H](C)CO)C(=O)Cc2cc(NC(=O)CCCCCC(=O)Nc3ccccc3N)ccc2O[C@H]1CN(C)C(=O)Nc1ccccc1` it was 0.594% (inactive); in that of `C[C@@H]1CCCCO[C@H](CN(C)Cc2ccc3c(c2)OCO3)[C@H](C)CN([C@H](C)CO)C(=O)c2cc(NC(=O)Nc3cccc4ccccc34)ccc2O1`, 171% (inactive).
Same read-out and setting: the figure for `CCC(=O)N1[C@H](CN(C)C(C)=O)[C@@H](c2ccc(C3=CCCCC3)cc2)[C@@H]1CO` is -18.9% (inactive).
Turning to `CCNC(=O)Nc1ccc2c(c1)C(=O)N(C)[C@@H]1CC[C@H](CC(=O)N[C@@H](C)c3ccccc3)O[C@@H]1CO2`, the activity change, negative = cytotoxicity is 66.2% (inactive).
Turning to `CCC(=O)N(C)C[C@H]1Oc2cc(C#CC(C)(C)O)ccc2S(=O)(=O)N([C@@H](C)CO)C[C@@H]1C`, the activity change, negative = cytotoxicity was 8.91% (inactive).
Consider `Cc1noc(C)c1NC(=O)Nc1ccc2c(c1)C(=O)N([C@H](C)CO)C[C@H](C)[C@H](CN(C)CC1CCCCC1)O2`, for which the activity change, negative = cytotoxicity is 40.9% (inactive).
For `CNC[C@H]1Oc2ncc(C#CCC(C)C)cc2C(=O)N([C@H](C)CO)C[C@H]1C`, the activity change, negative = cytotoxicity is 29% (inactive).

The assay is the same for the next values; noted with them: HEK293T viability, ATP luminescence (CellTiter-Glo), 48 h; at 35 µM (top of the series).
Consider `O=C(NC(=S)NCC1COc2ccccc2O1)c1ccc(Cl)cc1` (stereo not drawn), for which the activity change, negative = cytotoxicity is -9.32% (inactive).

Staying with this assay, now noted: HEK293T viability, ATP luminescence (CellTiter-Glo), 48 h; at 42 µM (top of the series).
`Cc1ccc(NC(=O)C2(C)CCCN2CC(C)C)cc1C` (stereo not drawn): the activity change, negative = cytotoxicity was -2.43% (inactive).
The same measure, in the same setting: the figure for `Cc1cccc(C)c1NC(=O)C1NC(=O)CC1c1ccccc1` (stereo not drawn) is 0.826% (inactive).
